Data published in patent US10584103B2 (Sanford Burnham Prebys Medical Discovery Institute, priority 2014, dated 2020).

Experiments:
NTR1 = NTR1 (Homo sapiens (Human), UniProt P30989); experiment: NTR1 dose response, high-content imaging assay in NTR1-U2OS cells (beta-arrestin-GFP); assay type: cell-based
From the text: The cell lines utilized in the high-content imaging assays, which include the NTR1-, NTR2-, and GPR35-U2OS osteosarcomas, were obtained from the laboratory of Dr. Lawrence Barak at the Duke University Medical Center. The media used in the culture of the cell lines, as well as the assays themselves, consisted of Minimum Essential Medium (15-010-CM) and L-glutamine (25-005-CL) from Cellgro/Mediatech (Manassas, Va.), fetal bovine serum (SH30396.03) from Hyclone (Logan, Utah), penicillin-streptomycin solution (PS-20) from Omega Scientific in Tarzana, Calif., G418 (ant-gn-1) from Invivogen (San Diego, Calif.), and zeocin (R250-01) from Invitrogen (Carlsbad, Calif.). Cell lines were cultured in T225 tissue culture flasks (431082) supplied by Corning (Corning, N.Y.). Additional reagents employed include Dulbecco's Phosphate-Buffered Saline (DPBS) (21-031CV) from Cellgro/Mediatech, Trypsin-EDTA 0.05% (25300) from Invitrogen, paraformaldehyde (30528954) from Acros Organics (Geel, Belgium), Hoechst 33342 (H3570) from Invitrogen. The high-content assays were run in 1536-well plates (29326) supplied by Aurora Biotechnology (Poway, Calif.) and utilized aluminum plate seals (T592100) from E&K Scientific (Santa Clara, Calif.). […]

[1] = test system: neurotensin-deficient mice; details: cited from earlier work

Chain of NTR1 (P30989 whole entry, species assumed): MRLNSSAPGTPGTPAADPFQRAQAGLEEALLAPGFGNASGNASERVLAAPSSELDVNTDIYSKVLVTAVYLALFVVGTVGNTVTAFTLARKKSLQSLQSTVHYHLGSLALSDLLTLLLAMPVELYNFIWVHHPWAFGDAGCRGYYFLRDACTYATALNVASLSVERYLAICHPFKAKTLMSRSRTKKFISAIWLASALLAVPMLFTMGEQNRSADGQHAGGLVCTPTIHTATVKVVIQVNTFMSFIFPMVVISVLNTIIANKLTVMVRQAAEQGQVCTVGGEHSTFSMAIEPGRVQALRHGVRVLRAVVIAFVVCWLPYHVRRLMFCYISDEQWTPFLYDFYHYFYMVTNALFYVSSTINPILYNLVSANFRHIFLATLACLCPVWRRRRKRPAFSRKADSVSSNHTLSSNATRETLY

EC50 (NTR1) | Structure (SMILES) | augmentation of PPI [1]
et | C#Cc1nc(N2CCC(c3ccccc3OC)CC2)c2cc(N(C)CCO)ccc2n1 [Example 192, 2-({2-Ethynyl-4-[4-(2-methoxy-phenyl)-piperidin-1-yl]-quinazolin-6-yl}-methyl-amino)-ethanol] | –
– | CN1CCN(C2=Nc3cc(Cl)ccc3Nc3ccccc32)CC1 [clozapine] | augmented PPI normally
– | O=C(CCCN1CCC(O)(c2ccc(Cl)cc2)CC1)c1ccc(F)cc1 [haloperidol] | ineffective
– | OCCOCCN1CCN(C2=Nc3ccccc3Sc3ccccc32)CC1 [quetiapine] | ineffective
